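Values below derive from 48-hour exposures of cells grown in 96-well plates, with endpoints linearly interpolated between the two concentrations bracketing the appropriate inhibition level. Definition used: TGI = concentration required for complete inhibition of growth.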
How the values were obtained:
Experiment in all cases: NCI anticancer screen, dose series, 48 h
COLO 205 colon = tested on: COLO 205 colon
IGROV1 ovarian = tested on: IGROV1 ovarian
DU-145 prostate = tested on: DU-145 prostate
UO-31 renal = tested on: UO-31 renal
HS 578T breast = tested on: HS 578T breast
NCI-H23 lung = tested on: NCI-H23 lung
LOX IMVI melanoma = tested on: LOX IMVI melanoma
EKVX NSCLC = tested on: EKVX NSCLC
HT29 colon = tested on: HT29 colon
MOLT-4 leukemia = tested on: MOLT-4 leukemia
NCI-H226 lung = tested on: NCI-H226 lung
SW-620 colon = tested on: SW-620 colon
K-562 leukemia = tested on: K-562 leukemia
HL-60(TB) leukemia = tested on: HL-60(TB) leukemia
HCT-116 colon = tested on: HCT-116 colon
HOP-92 NSCLC = tested on: HOP-92 NSCLC
OVCAR-4 ovarian = tested on: OVCAR-4 ovarian
SK-MEL-2 melanoma = tested on: SK-MEL-2 melanoma
SN12C renal = tested on: SN12C renal
HOP-62 NSCLC = tested on: HOP-62 NSCLC
KM12 colon = tested on: KM12 colon
A549 NSCLC = tested on: A549 NSCLC
MDA-MB-231 breast = tested on: MDA-MB-231 breast
RXF 393 renal = tested on: RXF 393 renal
SK-OV-3 ovarian = tested on: SK-OV-3 ovarian
NCI-H460 lung = tested on: NCI-H460 lung
M14 melanoma = tested on: M14 melanoma
SR leukemia = tested on: SR leukemia
UACC-62 melanoma = tested on: UACC-62 melanoma
RPMI-8226 leukemia = tested on: RPMI-8226 leukemia
CCRF-CEM leukemia = tested on: CCRF-CEM leukemia
MALME-3M melanoma = tested on: MALME-3M melanoma
U251 CNS = tested on: U251 CNS
SK-MEL-5 melanoma = tested on: SK-MEL-5 melanoma
UACC-257 melanoma = tested on: UACC-257 melanoma
T-47D breast = tested on: T-47D breast
HCT-15 colon = tested on: HCT-15 colon
MDA-MB-435 = tested on: MDA-MB-435
NCI/ADR-RES ovarian = tested on: NCI/ADR-RES ovarian
A498 renal = tested on: A498 renal
ACHN renal = tested on: ACHN renal
MDA-N = tested on: MDA-N
SNB-75 CNS = tested on: SNB-75 CNS
OVCAR-3 ovarian = tested on: OVCAR-3 ovarian
CAKI-1 renal = tested on: CAKI-1 renal
PC-3 prostate = tested on: PC-3 prostate
SF-295 CNS = tested on: SF-295 CNS
SK-MEL-28 melanoma = tested on: SK-MEL-28 melanoma
SF-539 CNS = tested on: SF-539 CNS
HCC-2998 colon = tested on: HCC-2998 colon
786-0 renal = tested on: 786-0 renal
SNB-19 CNS = tested on: SNB-19 CNS
NCI-H522 lung = tested on: NCI-H522 lung
OVCAR-5 ovarian = tested on: OVCAR-5 ovarian
SF-268 CNS = tested on: SF-268 CNS
OVCAR-8 ovarian = tested on: OVCAR-8 ovarian
BT-549 breast = tested on: BT-549 breast
TK-10 renal = tested on: TK-10 renal
MCF7 breast = tested on: MCF7 breast

Work on `CN(C)/N=C(/CC(O)(C(F)(F)F)C(F)(F)F)c1ccc([N+](=O)[O-])cc1` yielded a TGI (COLO 205 colon) greater than 100 µM, a TGI (IGROV1 ovarian) greater than 100 µM and a TGI (DU-145 prostate) greater than 100 µM. It also gave a TGI (UO-31 renal) greater than 100 µM, a TGI (HS 578T breast) greater than 100 µM and a TGI (NCI-H23 lung) greater than 100 µM. It also gave a TGI (LOX IMVI melanoma) greater than 100 µM, a TGI (EKVX NSCLC) greater than 100 µM and a TGI (HT29 colon) greater than 100 µM. It also gave a TGI (MOLT-4 leukemia) greater than 100 µM, a TGI (NCI-H226 lung) greater than 100 µM and a TGI (SW-620 colon) greater than 100 µM. It also gave a TGI (K-562 leukemia) greater than 100 µM, a TGI (HL-60(TB) leukemia) greater than 100 µM and a TGI (HCT-116 colon) greater than 100 µM. The TGI (HOP-92 NSCLC) was greater than 100 µM, the TGI (OVCAR-4 ovarian) was greater than 100 µM and the TGI (SK-MEL-2 melanoma) was greater than 100 µM. The TGI (SN12C renal) was greater than 100 µM, the TGI (HOP-62 NSCLC) was greater than 100 µM and the TGI (KM12 colon) was greater than 100 µM. The TGI (A549 NSCLC) was greater than 100 µM, the TGI (MDA-MB-231 breast) was greater than 100 µM and the TGI (RXF 393 renal) was greater than 100 µM. For the same compound, the TGI (SK-OV-3 ovarian) was greater than 100 µM, the TGI (NCI-H460 lung) was greater than 100 µM and the TGI (M14 melanoma) was greater than 100 µM. The TGI (SR leukemia) was greater than 100 µM, the TGI (UACC-62 melanoma) was greater than 100 µM and the TGI (RPMI-8226 leukemia) was greater than 100 µM. For the same compound, the TGI (CCRF-CEM leukemia) was greater than 100 µM, the TGI (MALME-3M melanoma) was greater than 100 µM and the TGI (U251 CNS) was greater than 100 µM. It also gave a TGI (SK-MEL-5 melanoma) greater than 100 µM, a TGI (UACC-257 melanoma) greater than 100 µM and a TGI (T-47D breast) greater than 100 µM. It also gave a TGI (HCT-15 colon) greater than 100 µM, a TGI (MDA-MB-435) greater than 100 µM and a TGI (NCI/ADR-RES ovarian) greater than 100 µM. The TGI (A498 renal) was greater than 100 µM, the TGI (ACHN renal) was greater than 100 µM and the TGI (MDA-N) was greater than 100 µM. The TGI (SNB-75 CNS) was greater than 100 µM, the TGI (OVCAR-3 ovarian) was greater than 100 µM and the TGI (CAKI-1 renal) was greater than 100 µM. It also gave a TGI (PC-3 prostate) greater than 100 µM, a TGI (SF-295 CNS) greater than 100 µM and a TGI (SK-MEL-28 melanoma) greater than 100 µM. It also gave a TGI (SF-539 CNS) greater than 100 µM, a TGI (HCC-2998 colon) greater than 100 µM and a TGI (786-0 renal) greater than 100 µM. It also gave a TGI (SNB-19 CNS) greater than 100 µM, a TGI (NCI-H522 lung) greater than 100 µM and a TGI (OVCAR-5 ovarian) greater than 100 µM. For the same compound, the TGI (SF-268 CNS) was greater than 100 µM and the TGI (OVCAR-8 ovarian) was greater than 100 µM.
`CC(=O)c1sc2c(c1OC(=O)c1ccco1)c(=O)n(-c1ccccc1)c(=S)n2-c1ccccc1` gave a TGI (COLO 205 colon) of 37.9 µM, a TGI (BT-549 breast) of 62.3 µM and a TGI (IGROV1 ovarian) of 54.2 µM. For the same compound, the TGI (DU-145 prostate) was 76.9 µM, the TGI (UO-31 renal) was 49.3 µM and the TGI (HS 578T breast) was 20 µM. The TGI (NCI-H23 lung) was 73.8 µM, the TGI (LOX IMVI melanoma) was 39.3 µM and the TGI (EKVX NSCLC) was 59.1 µM. For the same compound, the TGI (HT29 colon) was greater than 100 µM, the TGI (MOLT-4 leukemia) was 53.8 µM and the TGI (NCI-H226 lung) was 16.1 µM. It also gave a TGI (TK-10 renal) of 92.6 µM, a TGI (SW-620 colon) greater than 100 µM and a TGI (K-562 leukemia) greater than 100 µM. The TGI (HL-60(TB) leukemia) was 45 µM, the TGI (HCT-116 colon) was 41.1 µM and the TGI (HOP-92 NSCLC) was 22 µM. For the same compound, the TGI (OVCAR-4 ovarian) was 95 µM, the TGI (SK-MEL-2 melanoma) was 39.2 µM and the TGI (SN12C renal) was greater than 100 µM. The TGI (HOP-62 NSCLC) was 66.8 µM, the TGI (KM12 colon) was 48.5 µM and the TGI (A549 NSCLC) was greater than 100 µM. For the same compound, the TGI (MDA-MB-231 breast) was 47.1 µM, the TGI (RXF 393 renal) was 28.2 µM and the TGI (SK-OV-3 ovarian) was 55.3 µM. It also gave a TGI (MCF7 breast) of 55.4 µM, a TGI (NCI-H460 lung) greater than 100 µM and a TGI (M14 melanoma) of 28.3 µM. For the same compound, the TGI (SR leukemia) was 72.2 µM, the TGI (RPMI-8226 leukemia) was 41.6 µM and the TGI (CCRF-CEM leukemia) was 43.5 µM. The TGI (MALME-3M melanoma) was 37.9 µM, the TGI (U251 CNS) was 88.1 µM and the TGI (SK-MEL-5 melanoma) was 18.9 µM. For the same compound, the TGI (UACC-257 melanoma) was 88.7 µM, the TGI (T-47D breast) was 36.4 µM and the TGI (HCT-15 colon) was 41.9 µM. The TGI (MDA-MB-435) was 61.7 µM, the TGI (NCI/ADR-RES ovarian) was 51.2 µM and the TGI (MDA-N) was 82.6 µM. The TGI (SNB-75 CNS) was 78.1 µM, the TGI (OVCAR-3 ovarian) was greater than 100 µM and the TGI (CAKI-1 renal) was greater than 100 µM. The TGI (PC-3 prostate) was 64.2 µM, the TGI (SF-295 CNS) was 49.2 µM and the TGI (SK-MEL-28 melanoma) was 61.9 µM. For the same compound, the TGI (SF-539 CNS) was 20.6 µM, the TGI (786-0 renal) was greater than 100 µM and the TGI (SNB-19 CNS) was 88.2 µM. The TGI (NCI-H522 lung) was 39.7 µM, the TGI (SF-268 CNS) was 87.2 µM and the TGI (OVCAR-8 ovarian) was greater than 100 µM.

— PubChem BioAssay (NCI)
